Assay results from patent US20220062294A1, “PHARMACEUTICAL COMPOSITIONS OF TETRACYCLIC QUINOLONE ANALOGS AND THEIR SALTS” (Senhwa Biosciences, Inc., priority 2020, published 2022).

What was measured:
BRCA1/2 deficient cells = assay: Toxicity against BRCA1/2 deficient cell lines; assay type: cell-based; settings: cell lines of different genetic backgrounds (colon, breast and ovary), mouse and human
[1] = test system: multiple cancer cell lines; assay: Alamar Blue cell viability assay, overall statement on cancer cell lines; assay type: cell-based
Procedure: The effect of Compound I on cell viability was assessed by Alamar Blue assay of metabolic activity in various cancer cell lines.

[2] = test system: metastatic, recurrent, locally, advanced, or unresectable solid malignancy; assay: Pharmacokinetic and dose escalation study in patients with solid malignancy (Example 6); assay type: in vivo, human
Procedure: In pharmacokinetic and dose escalation studies, wadult patients with metastatic, recurrent, locally, advanced, or unresectable solid malignancy (patients with histologically and/or cytologically confirmed solid malignancy), who received prior anti-cancer treatment(s) until disease progression, at 10 different dose levels of Compound I were evaluated. Groups 1-7 were administered Compound I intravenously on days 1 and 8 of a 4-week cycle at 50, 100, 150, 200, 250, 325, and 475 mg/m^2 (solid Compound I reconstituted with 5% glucose in sterile water or similar biologically acceptable IV fluid), respectively. Groups 8-10 were administered intravenously on days 1, 8, and 15 of a 4-week cycle at 325, 475, and 650 mg/m^2, respectively. Each patient received each dose over 1 hour by IV infusion on days described above.
18 Patients were diagnosed with metastatic breast cancer.
12 Patients harbored BRCA1 or BRCA2 mutation. From the same group of 12 patients harboring BRCA1 or BRCA2 mutation, 8 patients had breast cancer (FIG. 2). Of the 8 patients, 6 patients harbored BRCA2 mutation and had breast cancer (FIG. 3). In FIGS. 1-3, each bar represents an individual in a treatment Group as indicated by the Group number corresponding to the treatment Groups.

[3] = test system: BRCA2 knockout tumor cells; assay: Xenograft model, BRCA2 knockout vs isogenic wild type tumor cells; assay type: in vivo; settings: BRCA2 knockout tumor cells in a xenograft model, compared with isogenic wild type control cells
normal cells = assay: Alamar Blue cell viability assay, overall statement on normal cells; assay type: cell-based

## Cc1cnc(CNC(=O)c2c(=O)c3ccc(N4CCCN(C)CC4)nc3n3c2sc2ccccc23)cn1 [Compound I, 2-(4-Methyl-[1,4]diazepan-1-yl)-5-oxo-5H-7-thia-1,11b-diaza-benzo[c]fluorene-6-carboxylic acid (5-methyl-pyrazin-2-ylmethyl)-amide]
BRCA1/2 deficient cells
  toxicity against BRCA1/2 deficient cells: specific toxicity
[1]
  antiproliferative activity: antiproliferation activity
[2]; one patient of Group 10 (650 mg/m^2 IV, days 1, 8, 15 of 4-week cycle) with PALB2 mutation and BRCA2 mutation
  response to Compound I treatment: partial response (PR)
[2]; patients with BRCA2 mutation, dose greater than or equal to 150 mg/m^2, IV
  response to Compound I treatment: tumor shrinkage
[3]
  therapeutic index of activity: wide therapeutic index
Normal cells
  activity in normal cells compared with cancer cell lines: significantly less active
